This note sets out measurements from US20100273200A1, “In-Vitro Model of Blood-Brain Barrier, In-Vitro Model of Diseased Blood-Brain Barrier, and Drug Screening Method, Analysis Method for Functions of Diseased Blood-Brain Barrier, and Analysis Method for Pathogenesis Using the Same” (priority 2005, published 2010).

Structures are written as SMILES.

This experiment has as its system ischemia-reperfusion BBB model. The experiment is described as follows: Effects of radical scavenger edaravone on ischemia-reperfusion BBB model (TEER and Na—F permeability). The class given is cell-based, rat. The following applies: edaravone added at the end of the 6 h ischemia period; 3 h reperfusion; FIG. 10. How it is done: TEER was measured with ENDOHM (manufactured by WPI). Then, the experiment on Na—F permeability was conducted.
1/PSapper=1/PSmembrane+1/PStrans.
FIG. 4 is a graph showing variation per day of transendothelial electrical resistance value measurement results of 7 coculture models prepared by the method shown in Example 4. FIG. 5 is a graph comparing transendothelial electrical resistance value measurement results among 7 coculture models prepared by the method shown in Example 4. Transendothelial Electrical Resistance (TEER) was measured with ENDOHM (manufactured by WPI). The electrical resistance value of each BBB model was measured from 2 to 7 days after model preparation. The TEER values of E00, E0A, and E0P were calculated by subtracting therefrom the electrical resistance value of only the membrane. The TEER values of EA0 ad EAP were calculated by subtracting therefrom the electrical resistance value of the membrane on which only the astrocytes were cultured. The TEER values of EP0 ad EPA were calculated by subtracting therefrom the electrical resistance value of the membrane on which only the pericytes were cultured. […]

Take `CC1=NN(c2ccccc2)C(=O)C1` [edaravone]: the “reduction in TEER attributed to ischemia-reperfusion (reduction in tight junction function)” value was “significantly suppressed” and the “rise in Na—F permeability attributed to ischemia-reperfusion (reduction in tight junction function)” value is “significantly suppressed”.
